The text below walks through data of US20240415802A1, “GENISTEIN FOR ASTHMA TREATMENT” (University of South Florida, priority 2022, published 2024).

The target of test [1] is T1, PAI-1 (Mus musculus, UniProt P22777).
T1 sequence (P22777 23-402): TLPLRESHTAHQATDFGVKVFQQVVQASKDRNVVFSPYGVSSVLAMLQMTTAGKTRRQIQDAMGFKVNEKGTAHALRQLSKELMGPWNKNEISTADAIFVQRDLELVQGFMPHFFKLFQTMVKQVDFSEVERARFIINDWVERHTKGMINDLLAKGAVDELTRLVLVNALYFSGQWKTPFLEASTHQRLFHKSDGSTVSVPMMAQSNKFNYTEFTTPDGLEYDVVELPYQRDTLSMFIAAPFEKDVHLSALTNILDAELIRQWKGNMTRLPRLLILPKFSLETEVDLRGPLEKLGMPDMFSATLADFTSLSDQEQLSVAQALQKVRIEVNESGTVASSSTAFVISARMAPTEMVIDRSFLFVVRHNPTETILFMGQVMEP
The settings on record: OVA challenge model of allergic asthma; cited from earlier work.

Test [2] relates to PAI-1 4G promoter. Briefly: PAI-1 promoter luciferase reporter assay in stimulated LAD2 mast cells. In kind it is cell-based, human. The settings on record: cells transfected with 4G vector, genistein pretreatment 5 μM 1 hour. As for the experimental part: LAD2 cells, a human mast cell line, were cultured and transfected with luciferase plasmids containing a 4G, 5G or pGL3-basic vector to determine the promotor activity. These LAD2 cells were stimulated overnight with IgE (100 ng/mL) and streptavidin (500 ng/mL) (IgE+streptavidin) for IgE-receptor cross-linking or Ionomycin (100 ng/mL) and phorbol myristate acetate (PMA, 10 ng/ml) (Ionomycin+PMA) with or without genistein pretreatment (5 μM) for 1 hour. […] LAD2 cells transfected with the 5G vector didn't increase promoter activity by IgE+Streptavidin/Ionomycin+PMA stimulation compared to no treatment (FIGS. 2C and 2D).
Human mast cells (LAD2) were grown in complete serum-free growth media (Stem pro-34 with the supplement, penicillin/streptomycin, L-glutamine and SCF recombinant, Invitrogen, Waltham, MA, USA). Cells were cultured in cytokine-free media (without SCF recombinant) at density of ˜0.5×10^6 per mL for a day prior to transfection and stimulation. Cells were transfected with luciferase plasmids containing different Pai-1 polymorphisms, 4G4G, 5G5G, pGL3-luciferase reporter basic vector (empty backbone, Promega, Madison, WI) using Lipofectamine 3000 transfection reagent (Invitrogen, Waltham, MA, USA). […] The firefly luciferase activity and Renilla luciferase activity were measured sequentially.

Test [3] relates to PAI-1 4G promoter. The experiment in a line: PAI-1 promoter luciferase reporter assay in TGF-β stimulated NHBE cells. The test is classed as cell-based, human. Conditions: NHBE cells transfected with 4G vector; TGF-β 2 ng/mL 6 hours; genistein pretreatment 5 μM 1 hour; p=0.007. As for the experimental part:
Normal human bronchial epithelial cells (NHBE) and a human mast cell line, LAD2, were cultured and transfected with luciferase plasmids containing a 4G, 5G or pGL3-basic vector (empty backbone). […] (FIG. 1B)
Normal human bronchial epithelial cells (NHBE) were cultured in 5% CO2 chamber at 37° C. with epithelial cell growth basal media (BEGM, Lonza). Cells were seeded on type 1 collagen-coated plate. Prior to transfection and stimulation, NHBEs were cultured without hydrocortisone (HC) for a day or two, at ˜80% confluency in 12 wells. Passage 2 or 3 was used for the experiment. Cells were transfected with luciferase plasmids containing different Pai-1 polymorphisms, 4G4G, 5G5G, pGL3-luciferase reporter basic vector (empty backbone, Promega, Madison, WI, USA) using Lipofectamine 3000 transfection reagent (Invitrogen, Waltham, MA, USA). Cells were stimulated for 6 hours with TGF-β (2 ng/mL, R&D Systems, Minneapolis, MN, USA) with and without genistein (Sigma-Aldrich, St. Louis, MO, USA) pretreatment (5 μM) for 1 hour. Cells were harvested and lysed in 1×PLB reagent prior to performing Dual-luciferase report assay (DLR assay, Promega, Madison, WI, USA). The firefly luciferase activity and Renilla luciferase activity were measured sequentially.

For test [4], the system named is PAI-1. Conditions: normal bronchial epithelial cells; cited from earlier work.

The structures appear in SMILES notation.

Regarding `O=C(O)C(=O)c1cn(Cc2ccccc2)c2ccc(-c3ccc(OC(F)(F)F)cc3)cc12` [Tiplaxtinin], in test [1], the “Airway hyperresponsiveness (AHR)” value is given as “reduced” and the “Degree of eosinophilic airway inflammation” value is reported as “reduced”.
On to `O=c1c(-c2ccc(O)cc2)coc2cc(O)cc(O)c12` [genistein, 5,7-dihydroxy-3-(4-hydroxyphenyl)-chromen-4-onc], for which the “PAI-1 4G promoter activity increased by IgE+Streptavidin stimulation” value in test [2] (IgE 100 ng/mL + streptavidin 500 ng/mL, p=0.05) is recorded as “blocked by genistein pretreatment significantly”. In addition, the “PAI-1 4G promoter activity increased by Ionomycin+PMA stimulation” value in test [2] (Ionomycin 100 ng/mL + PMA 10 ng/ml, p<0.05) is recorded as “blocked by genistein pretreatment significantly”. The “PAI-1 4G promoter activity increased by TGF-β1 stimulation” value in test [3] is on record as “blocked by genistein pretreatment significantly”. Also, the “TGF-β1-induced PAI-1 production” value in test [4] is on record as “downregulation”.
